Earlier results, collected in patent publication US10316053B2, “Flavonoid compounds and uses thereof” (ARMARON BIO PTY LTD, priority 2012, dated 2019).

System: myocardial ischaemia and reperfusion
Details: in vitro studies; Wang et al., Br J Pharmacol (2004) 142, 443-452

In the case of O=c1c(O)c(-c2ccc(O)c(O)c2)oc2ccccc12 [DiOHF, 3′,4′-dihydroxy flavonol], the “infarct and injury associated with myocardial ischaemia and reperfusion” value is listed as “reduce infarct and injury”.
